Results: patent publication US10597403B2, “Condensed cyclic compound, composition including the condensed cyclic compound, organic light-emitting device including the condensed cyclic compound, and method of manufacturing the organic light-emitting device” (SAMSUNG ELECTRONICS CO., LTD., priority 2015, dated 2020)

Assays:
[1] = Measurement of glass transition temperature (Tg), scanning calorimetry, JIS K 7121, SII DSC6220; format: physicochemical; conditions: for heat resistance: result in words, from Tg
Experimental: The glass transition temperature may be measured by a method defined in JIS K 7121 or ISO 3146 corresponding thereto. In the following examples, the glass transition temperature was measured by a scanning calorimetric measurement method.
In an argon atmosphere, 2.20 g (5.52 mmol) of Intermediate a, 3.30 g (4.97 mmol) of Intermediate b, 0.078 g (0.11 mmol) of dichlorobis(triphenylphosphine)dipalladium, 55 mL of dioxane, and 28 mL of a 0.5 N sodium carbonate aqueous solution were added to a reaction vessel, and the mixture was stirred at a temperature of 90° C. for 8 hours. After the reaction was completed, the resultant mixture was cooled to room temperature and filtered by using celite. An organic layer obtained therefrom was concentrated and purified by column chromatography, thereby completing the preparation of Compound 1-7 (synthesized amount: 2.97 g, yield: 69.9%) (the structure thereof was identified by LC-MS). A measurement of a glass transition temperature (Tg) was performed based on JIS K 7121 by using SII DSC6220 (manufactured by Seiko Instruments Inc.).
(§1) The glass transition temperature (Tg) and solubility of Compounds 1-5, 1-23, 1-24, and 1-79 were measured. In measuring the solubility, xylene was used as a solvent. The glass transition temperature (Tg) and solubility of each compound is written under each compound number.

[2] = Measurement of solubility in xylene; format: physicochemical; conditions: for Solubility (xylene) / solubility: solvent xylene; for solubility: result in words
Experimental: as §1

Tg (glass transition temperature) ([1]; JIS K 7121, SII DSC6220) | Solubility (xylene) [2] | heat resistance [1] | solubility [2] | soluble in a hydrocarbon-based solvent ([2]; toluene or xylene) | SMILES
156.6 °C | > 10 wt % |  |  |  | c1ccc(-c2cc(-c3ccccc3)cc(-c3cccc(-n4c5ccccc5c5cc(-c6ccc7c(c6)c6cc(-c8ccccc8)ccc6n7-c6ccccc6)ccc54)c3)c2)cc1 [Compound 6-5]
 |  | excellent | excellent |  | c1ccc(-c2cc(-c3ccccc3)cc(-c3cccc(-c4cc(-c5ccccc5)nc(-c5cccc(-c6cccc7c6c6cc(-c8ccccc8)ccc6n7-c6ccccc6)c5)n4)c3)c2)cc1 [Compound 1-5]
 |  | excellent | excellent |  | c1ccc(-c2cc(-c3ccccc3)cc(-c3cccc(-c4nc(-c5ccccc5)nc(-c5cccc(-c6ccc7c(c6)c6cc(-c8ccccc8)ccc6n7-c6ccccc6)c5)n4)c3)c2)cc1 [Compound 1-79]
 | > 10 wt % |  |  | soluble | c1ccc(-c2cc(-c3ccccc3)cc(-c3cccc(-c4nc(-c5ccccc5)nc(-c5cccc(-c6cccc7c6c6cc(-c8ccccc8)ccc6n7-c6ccccc6)c5)n4)c3)c2)cc1 [Compound 1-7]
